In ChEMBL document CHEMBL1201862, “PubChem BioAssay data set” (2004):
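Compound exposure: 48 hours, 5 concentrations, 96-well plates. GI50 = concentration required for 50% inhibition of growth.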 Calls of active or inactive are those of the source. Cut-off read from the data, not from the text of the source: active = GI50 up to about 1.1 µM and inactive = higher.

Experiments:
Assay in all cases: NCI tumour cell line growth inhibition, 48 h
SK-OV-3 = tested on: SK-OV-3
SF-295 = tested on: SF-295
NCI-H460 = tested on: NCI-H460
MOLT-4 = tested on: MOLT-4
NCI-H226 = tested on: NCI-H226
UACC-257 = tested on: UACC-257
MCF7 = tested on: MCF7
SF-268 = tested on: SF-268
786-0 = tested on: 786-0
SR = tested on: SR
Malme-3M = tested on: Malme-3M
HOP-62 = tested on: HOP-62
DU-145 = tested on: DU-145
SK-MEL-28 = tested on: SK-MEL-28
MDA-MB-231 = tested on: MDA-MB-231
T47D = tested on: T47D
SF-539 = tested on: SF-539
NCI-H522 = tested on: NCI-H522

| SMILES | GI50 (SK-OV-3) | GI50 (SF-295) | GI50 (NCI-H460) | GI50 (MOLT-4) | GI50 (NCI-H226) | GI50 (UACC-257) | GI50 (MCF7) | GI50 (SF-268) | GI50 (786-0) | GI50 (SR) | GI50 (Malme-3M) | GI50 (HOP-62) | GI50 (DU-145) | GI50 (SK-MEL-28) | GI50 (MDA-MB-231) | GI50 (T47D) | GI50 (SF-539) | GI50 (NCI-H522) |
| --- | --- | --- | --- | --- | --- | --- | --- | --- | --- | --- | --- | --- | --- | --- | --- | --- | --- | --- |
| CC(C)Oc1ccc(CNC2=NCCO2)c2ccccc12 | 16.3 µM (inactive) | 13.7 µM (inactive) | 12.4 µM (inactive) | 4.85 µM (inactive) | 15.7 µM (inactive) | 5.25 µM (inactive) | 14.1 µM (inactive) | 22.3 µM (inactive) | 13.6 µM (inactive) | 7.85 µM (inactive) | 14.1 µM (inactive) | 15.6 µM (inactive) | 18.2 µM (inactive) | 14.5 µM (inactive) | 14.5 µM (inactive) | 11.9 µM (inactive) | 9.66 µM (inactive) |  |
| COC1=C(OC)C(=O)C(C/C=C/c2c(Cl)nc3sccn23)=C(C)C1=O | 16.7 µM (inactive) | 2.1 µM (inactive) | 17.9 µM (inactive) | 1.69 µM (inactive) |  | 0.536 µM (active) | 5.19 µM (inactive) | 16 µM (inactive) | 21.5 µM (inactive) | 15 µM (inactive) | 3.75 µM (inactive) | 16.8 µM (inactive) | 18.5 µM (inactive) | 17.9 µM (inactive) | 7.67 µM (inactive) | 7.74 µM (inactive) | 17.2 µM (inactive) | 15.1 µM (inactive) |
| Cc1nc2c(sc3nc4c(cc32)CCC4)c(=O)o1 | > 100 µM (inactive) | > 100 µM (inactive) | > 59.8 µM (inactive) | 41.9 µM (inactive) | > 96.2 µM (inactive) | 89.1 µM (inactive) | > 81.3 µM (inactive) | 49.7 µM (inactive) | > 72.4 µM (inactive) | 39.3 µM (inactive) |  | > 100 µM (inactive) | > 100 µM (inactive) | 46.7 µM (inactive) | > 92.5 µM (inactive) | > 78 µM (inactive) | 40.5 µM (inactive) | 31 µM (inactive) |
| O1C2C1C1OC1C1OC1C1OC21 (configuration not stated) | > 100 µM (inactive) | > 100 µM (inactive) |  | > 100 µM (inactive) | > 100 µM (inactive) | > 100 µM (inactive) | > 100 µM (inactive) | > 100 µM (inactive) | > 100 µM (inactive) | > 100 µM (inactive) | > 100 µM (inactive) | > 100 µM (inactive) | > 100 µM (inactive) | > 100 µM (inactive) | > 100 µM (inactive) | > 100 µM (inactive) |  | > 100 µM (inactive) |
